pIC50: −log10 of the molar value. Like-named read-outs stand apart in the source and are kept apart here.
Experiments:
[1] = target: T1, MMP-9 (92 kDa, gelatinase B; type IV collagenase) (Homo sapiens, UniProt P14780); experiment: Assay of type IV collagenase inhibitors: activated MMP-9 with type IV collagenase activity kit substrate, fluorescent intensity; assay type: biochemical
T1 construct: endogenous in cells; enzyme purified from the conditioned medium
Procedure: (1) Isolation and Purification of MMP-9 (92 kDa, Gelatinase B)
Type IV collagenase (MMP-9) was purified according to the methods descrived in the following literature.
Subsequently, activated MMP-9 was obtained by treating the pro-MMP-9 with trypsin.
(2) Assay Methods of Type IV Collagenase Inhibitors
Collagenase assay was performed using the activated MMP-9 described above and the substrate supplied in the type IV collagenase activity kit (YAGAI, inc.), according to the manufacturer's protocol. The following 4 assays are performed per compound (inhibitor).
(A) substrate (type IV collagenase), enzyme (MMP-9), inhibitor
(B) substrate (type IV collagenase), inhibitor
(C) substrate (type IV collagenase), enzyme (MMP-9)
(D) substrate (type IV collagenase)
According to the manufacturer's protocol, fluorescent intensity was measured and percent inhibition was determined by the following equation.
Inhibition (%)={1−(A−B)/(C−D)}×100

[2] = activated MMP-9, type IV collagenase activity kit substrate, fluorescent intensity, concentration at which percent inhibition reaches 50%
[3] = inhibition of type IV collagenase (MMP-9), concentration at which percent inhibition reaches 50%

T1 sequence (P14780 107-707 limits assumed): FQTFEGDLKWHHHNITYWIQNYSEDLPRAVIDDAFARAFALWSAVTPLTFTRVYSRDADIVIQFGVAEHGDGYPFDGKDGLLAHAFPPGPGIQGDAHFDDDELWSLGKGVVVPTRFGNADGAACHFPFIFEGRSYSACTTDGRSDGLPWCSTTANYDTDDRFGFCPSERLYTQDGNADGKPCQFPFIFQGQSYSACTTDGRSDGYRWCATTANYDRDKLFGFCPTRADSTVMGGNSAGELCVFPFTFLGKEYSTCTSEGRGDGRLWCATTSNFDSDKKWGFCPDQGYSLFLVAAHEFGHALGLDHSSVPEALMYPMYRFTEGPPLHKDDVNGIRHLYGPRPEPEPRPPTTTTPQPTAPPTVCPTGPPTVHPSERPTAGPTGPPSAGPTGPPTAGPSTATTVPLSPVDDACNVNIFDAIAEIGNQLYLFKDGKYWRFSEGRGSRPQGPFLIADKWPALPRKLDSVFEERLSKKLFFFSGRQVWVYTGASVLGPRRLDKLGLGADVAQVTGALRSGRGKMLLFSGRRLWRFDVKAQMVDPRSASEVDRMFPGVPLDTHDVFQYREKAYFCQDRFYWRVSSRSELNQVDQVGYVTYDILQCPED

Compound | melting point [°C] | other results
O=C(Nc1ccc(S(=O)(=O)N[C@H](Cc2ccccc2)C(=O)O)cc1)c1ccc(F)cc1 [Example 192] | 218 to 220 | pIC50 [1]: 6.49
COc1ccc(C(=O)Nc2ccc(S(=O)(=O)N[C@H](Cc3ccccc3)C(=O)O)cc2)cc1 [Example 186] | 237 to 239 | pIC50 [1]: 7.01
O=C(Nc1ccc(S(=O)(=O)N[C@H](Cc2c[nH]c3ccccc23)C(=O)O)cc1)c1ccc([N+](=O)[O-])cc1 (hydrate or solvate) [Example 180] | 211 to 213 | –
CN(C)c1ccc(C(=O)Nc2ccc(S(=O)(=O)N[C@H](Cc3c[nH]c4ccccc34)C(=O)O)cc2)cc1 (hydrate or solvate) [Example 181] | 236 to 238 | –
Cc1cnc(C(=O)Nc2ccc(S(=O)(=O)N[C@H](Cc3ccccc3)C(=O)O)cc2)cn1 [Example 204] | 236 to 237 | pIC50 [1]: 5.40
CC(C)[C@@H](NS(=O)(=O)c1ccc(NC(=O)c2ccc([N+](=O)[O-])cc2)cc1)C(=O)O (hydrate or solvate) [Example 201] | 240 to 242 | –
Nc1ccc(C(=O)Nc2ccc(S(=O)(=O)N[C@H](Cc3c[nH]c4ccccc34)C(=O)O)cc2)cc1 [Example 179] | 216 to 218 | pIC50 [1]: 5.63
O=C(O)C(Cc1cccc2ccccc12)NS(=O)(=O)c1ccc(-c2nnn(-c3ccccc3)n2)cc1 (centres unmarked) (hydrate or solvate) [Example 218] | 225 to 227 | –
CSc1ccc(C(=O)Nc2ccc(S(=O)(=O)N[C@H](Cc3c[nH]c4ccccc34)C(=O)O)cc2)cc1 (hydrate or solvate) [Example 184] | 244 to 249 | –
O=C(Nc1ccc(S(=O)(=O)N[C@H](Cc2ccccc2)C(=O)O)cc1)c1ccc(Cl)nc1 [Example 193] | 201 to 203 | pIC50 [1]: 6.14
COc1ccc(C(=O)Nc2ccc(S(=O)(=O)N[C@@H](C(=O)O)C(C)C)cc2)cc1 (hydrate or solvate) [Example 200] | 220 to 221 | –
Cc1ccc(C(=O)Nc2ccc(S(=O)(=O)N[C@H](Cc3c[nH]c4ccccc34)C(=O)O)cc2)cc1 (hydrate or solvate) [Example 182] | 240 to 244 | –
CC(C)[C@@H](NS(=O)(=O)c1ccc(NC(=O)c2ccccc2)cc1)C(=O)O (hydrate or solvate) [Example 199] | 226 to 227 | –
COc1ccc(C(=O)Nc2ccc(S(=O)(=O)N[C@@H](C(=O)O)C(C)(C)C)cc2)cc1 (hydrate or solvate) [Example 203] | 214 to 216 | –
O=C(Nc1ccc(S(=O)(=O)N[C@H](Cc2c[nH]c3ccccc23)C(=O)O)cc1)c1ccc(F)cc1 (hydrate or solvate) [Example 185] | 170 to 175 | –
COc1ccc(C(=O)Nc2ccc(S(=O)(=O)N[C@H](Cc3c[nH]c4ccccc34)C(=O)O)cc2)cc1 (hydrate or solvate) [Example 178] | 233 to 234 | –
CC(C)[C@@H](NS(=O)(=O)c1ccc(NC(=O)c2ccc(-c3ccccc3)cc2)cc1)C(=O)O (hydrate or solvate) [Example 195] | 254 to 256 | –
O=C(Nc1ccc(S(=O)(=O)N[C@H](Cc2c[nH]c3ccccc23)C(=O)O)cc1)c1ccc(Br)cc1 (hydrate or solvate) [Example 183] | 215 to 218 | –
O=C(O)[C@@H](Cc1c[nH]c2ccccc12)NS(=O)(=O)c1ccc(Oc2ccccc2)cc1 [Example 1a-1-61] | – | pIC50 [1, 2]: 6.61
O=C(O)C(Cc1c[nH]c2ccc(F)cc12)NS(=O)(=O)c1ccc(-c2ccccc2)cc1 (racemic) [Example 1a-1-18] | – | pIC50 [1, 2]: 6.30
Cc1ccc(C(=O)Nc2ccc(S(=O)(=O)N[C@H](Cc3c[nH]c4ccccc34)C(=O)O)cc2)cc1 [Example 182] | – | pIC50 [1]: 8.23
O=C(O)[C@@H](Cc1ccccc1)NS(=O)(=O)c1ccc(Oc2ccccc2)cc1 [Example 1a-1-60] | – | pIC50 [1, 2]: 5.88
O=C(NO)C(Cc1cscn1)NS(=O)(=O)c1ccc(-c2ccccc2)cc1 (racemic) [Example 1b-1-2] | – | pIC50 [1, 2]: 7.40
O=C(NO)[C@H](Cc1c[nH]c2ccccc12)NS(=O)(=O)c1ccc(Oc2ccccc2)cc1 [Example 1b-1-62] | – | pIC50 [1, 2]: 5.46
O=C(NO)[C@@H](Cc1ccccc1)NS(=O)(=O)c1ccc(N=Nc2ccccc2)cc1 [Example 1b-1-85] | – | pIC50 [1, 3]: 7.89
O=C(O)[C@@H](Cc1ccccc1)NS(=O)(=O)c1ccc(C#Cc2ccc(F)cc2)s1 [Example 1a-2-38] | – | pIC50 [1, 3]: 6.65
CC(C)[C@H](C(=O)O)N(C)S(=O)(=O)c1ccc(Oc2ccccc2)cc1 [Example 252] | – | pIC50 [1]: 6.62

Further lines, with some results ahead:

melting point [°C] | Compound | other results
132 to 132.5 | CC(C)C[C@H](C(=O)O)N(C)S(=O)(=O)c1ccc(-c2nnn(-c3ccccc3)n2)cc1 [Example 257] | pIC50 [1]: 6.11
224 to 226 | CC(C)(C)c1ccc(-n2nnc(-c3ccc(S(=O)(=O)N[C@H](Cc4ccccc4)C(=O)O)cc3)n2)cc1 [Example 236] | pIC50 [1]: 6.52
229 to 230 | CC(C)[C@@H](NS(=O)(=O)c1ccc(NC(=O)c2ccc(Br)cc2)cc1)C(=O)O [Example 202] | pIC50 [1]: 7.94
224 to 225 | O=C(O)C(Cc1c[nH]c2ccc(F)cc12)NS(=O)(=O)c1ccc(-c2nnn(-c3ccccc3)n2)cc1 (centres unmarked) [Example 213] | pIC50 [1]: 6.89
227 to 229 | Cc1ccc(C(=O)Nc2ccc(S(=O)(=O)N[C@@H](C(=O)O)C(C)C)cc2)cc1 (hydrate or solvate) [Example 196] | –
227 to 228 | CC(C)[C@@H](NS(=O)(=O)c1ccc(-c2nnn(-c3ccc(Br)cc3)n2)cc1)C(=O)O (hydrate or solvate) [Example 225] | –
203 to 205 | O=C(O)[C@@H](Cc1c[nH]c2ccccc12)NS(=O)(=O)c1ccc(-c2nnn(-c3ccc(F)cc3)n2)cc1 [Example 227] | pIC50 [1]: 7.70
222 to 224 | CSc1ccc(-n2nnc(-c3ccc(S(=O)(=O)N[C@H](Cc4ccccc4)C(=O)O)cc3)n2)cc1 (hydrate or solvate) [Example 246] | –
213 to 216 | CSc1ccc(-n2nnc(-c3ccc(S(=O)(=O)N[C@H](Cc4c[nH]c5ccccc45)C(=O)O)cc3)n2)cc1 (hydrate or solvate) [Example 247] | –
223 to 225 | CC(C)[C@@H](NS(=O)(=O)c1ccc(-c2nnn(-c3ccc(Cl)cc3)n2)cc1)C(=O)O [Example 244] | pIC50 [1]: 7.78
214 to 216 | COc1ccc(-n2nnc(-c3ccc(S(=O)(=O)N[C@H](Cc4ccccc4)C(=O)O)cc3)n2)cc1 (hydrate or solvate) [Example 234] | –
190 to 192 | N#Cc1ccc(-n2nnc(-c3ccc(S(=O)(=O)N[C@H](Cc4ccccc4)C(=O)O)cc3)n2)cc1 (hydrate or solvate) [Example 235] | –
195 to 196 | COc1ccc(-n2nnc(-c3ccc(S(=O)(=O)N[C@H](Cc4c[nH]c5ccccc45)C(=O)O)cc3)n2)cc1 [Example 220] | –
204 to 206 | O=C(O)[C@@H](Cc1ccccc1)NS(=O)(=O)c1ccc(-c2nnn(-c3ccc(Cl)cc3)n2)cc1 (hydrate or solvate) [Example 232] | –
204 to 207 | COc1ccc(-n2nnc(-c3ccc(S(=O)(=O)N[C@@H](C(=O)O)C(C)(C)C)cc3)n2)cc1 [Example 226] | pIC50 [1]: 6.78
205 to 207 | O=C(O)[C@@H](Cc1ccccc1)NS(=O)(=O)c1ccc(-c2nnn(-c3ccc(F)cc3)n2)cc1 (hydrate or solvate) [Example 231] | –
226 to 227 | Cc1ccc(-n2nnc(-c3ccc(S(=O)(=O)N[C@H](Cc4ccccc4)C(=O)O)cc3)n2)cc1 (hydrate or solvate) [Example 233] | –
225 to 227 | O=C(O)[C@@H](Cc1ccccc1)NS(=O)(=O)c1ccc(-c2nnn(-c3ccc(C4CCCCC4)cc3)n2)cc1 (hydrate or solvate) [Example 237] | –
111 to 114 | O=Cn1cc(C[C@@H](NS(=O)(=O)c2ccc(-c3nnn(-c4ccccc4)n3)cc2)C(=O)O)c2ccccc21 (hydrate or solvate) [Example 219] | –
190 to 191 | O=C(O)[C@@H](Cc1ccccc1)NS(=O)(=O)c1ccc(-c2nnn(-c3ccc([N+](=O)[O-])cc3)n2)cc1 (hydrate or solvate) [Example 230] | –
194 to 195 | CSc1ccc(-n2nnc(-c3ccc(S(=O)(=O)N[C@@H](C(=O)O)C(C)C)cc3)n2)cc1 (hydrate or solvate) [Example 245] | –
199 to 201 | Cc1ccc(-n2nnc(-c3ccc(S(=O)(=O)N[C@H](Cc4c[nH]c5ccccc45)C(=O)O)cc3)n2)cc1 (hydrate or solvate) [Example 241] | –
206 to 207 | Cc1ccc(-n2nnc(-c3ccc(S(=O)(=O)N[C@@H](C(=O)O)C(C)C)cc3)n2)cc1 (hydrate or solvate) [Example 242] | –
204 to 207 | CCC(C)[C@@H](NS(=O)(=O)c1ccc(-c2nnn(-c3ccc(OC)cc3)n2)cc1)C(=O)O (some centres unmarked) (hydrate or solvate) [Example 222] | –
208 to 209 | CC(C)[C@@H](NS(=O)(=O)c1ccc(-c2nnn(-c3ccc(F)cc3)n2)cc1)C(=O)O (hydrate or solvate) [Example 243] | –
205 to 207 | O=C(O)[C@@H](Cc1c[nH]c2ccccc12)NS(=O)(=O)c1ccc(-c2nnn(-c3ccc(Br)cc3)n2)cc1 (hydrate or solvate) [Example 240] | –
